# Marks after values point to notes of the source that are not given here.
# Key:
# Assay type in all cases: in vivo, rat
# [1] = Weekly food intake of SHR rats; conditions: captopril 27 mg/kg intragastric
# Experimental: (§1) 2.1 Grouping and administration of animals: 112 SHR rats (the female and male SHR rats are half and half, and the female rats are not pregnant) with the body weight of 200-250 g are taken, the rats are enabled to adapt to a laboratory for a period of 5 d, blood pressure is measured once at a day to enable the rats to adapt to the environment and detect stimulation. Then, weighing and numbering are carried out, and the SHR rats are equally divided into 14 groups randomly (each group comprises 8 rats), i.e., an SHR rat model control group, a positive control group (captopril, 27 mg/kg), a BZ large-dose group (120 mg/kg/d), a BZ small-dose group (60 mg/kg/d), a BA large-dose group (120 mg/kg/d), a BA small-dose group (60 mg/kg/d), a BL large-dose group (120 mg/kg/d), a BL small-dose group (60 mg/kg/d), a BM large-dose group (120 mg/kg/d), a BM small-dose group (60 mg/kg/d), a BD large-dose group (120 mg/kg/d), a BD small-dose group (60 mg/kg/d), a GB large-dose group (120 mg/kg/d) and a GB small-dose group (60 mg/kg/d). In addition, 8 healthy Wistar rats are taken as a normal control group. Intragastric administration is performed on the rats of each drug group separately according to the above-mentioned doses by 1 mL/100 g body weight, intragastric administration is performed on the rats of the normal control group and the rats of the SHR rat model control group with an equal volume of distilled water, and administration is performed continuously for 8 weeks.
# (§2) 2.2 General state: during observation, conditions such as mind, water drinking, food intake, bowel movement, hair color, body weight and range of motion of rats are observed. Irritable degrees of the rats are divided into III levels: a level I means that the rats are free of obvious response when necks of the rats are seized; a level II means that the rats scream and startle when the necks of the rats are seized; and a level III means that the rats bite or rats of same cages frequently fight when the necks of the rats are seized.
# (§3) 3.1 Influence on general state of spontaneously hypertensive rats: the rats of the normal control group are normal in food intake, drinking and motion conditions, sensitive in response, healthy and glossy in hair color, good in mental state and free of any unusual response; the rats of the SHR model group gradually present that back hair is fluffy, clustered and dim, the appetite is reduced, the body weight is reduced, the mind is dispirited and irritable, and the rats are prone to the behaviors of intense resisting, attacking and so on during administration and blood pressure detection, and irritable degrees are mostly changed to a level II and a level III from a level I; and after single administration of ginkgolide B and derivatives thereof, behavioral general state observations of rats of each group are free of obvious difference from those of the model control group.
# [2] = Weekly body weight of SHR rats; conditions: captopril 27 mg/kg intragastric
# Experimental: as §1, §2, §3
# [3] = tested on: spontaneously hypertensive rats (SHR); assay: Caudal artery systolic pressure of spontaneously hypertensive rats, single administration; conditions: captopril 27 mg/kg intragastric single administration, x ± s, n = 8
# Experimental: as §1
# (§4) 2.3 Blood pressure measuring: caudal artery systolic pressure of rats is measured with a Bp-6 noninvasive blood pressure measuring system. Under the condition that the rats are calm, the systolic pressure is continuously measured for 3 times, and the average value of the measured systolic pressure is taken as a pressure measuring result. Observation indexes: (1) single-administration pressure lowering effect: blood pressure of the rats is measured before administration and blood pressure conditions are measured 30 min, 60 min, 90 min and 120 min after first administration; and (2) continuous-administration pressure lowering condition: blood pressure is separately measured 30 min after administration at 1 d, 7 d, 13 d, 19 d, 25 d, 35 d, 49 d and 56 d, the blood pressure is repeatedly measured for 3 times at a day, and the average value of obtained values is taken as a final blood pressure value.
# [4] = tested on: spontaneously hypertensive rats (SHR); assay: Caudal artery systolic pressure of spontaneously hypertensive rats, 8 weeks of continuous medication; conditions: captopril 27 mg/kg intragastric continuous, x ± s, n = 8
# Experimental: as §1, §4
smiles,measurement,setting,value
"C[C@H](CS)C(=O)N1CCC[C@H]1C(=O)O [Positive control, captopril, reference compound]",Average dairy food intake,[1]; week 0,18.4 g/day
same,Average dairy food intake,[1]; week 1,20.0^▴ g/d
same,Average dairy food intake,[1]; week 2,19.1^▴ g/d
same,Average dairy food intake,[1]; week 3,19.5^▴ g/d
same,Average dairy food intake,[1]; week 4,19.9^▴ g/d
same,Average dairy food intake,[1]; week 5,21.4^▴▴ g/d
same,Average dairy food intake,[1]; week 6,23.8^▴▴ g/d
same,Average dairy food intake,[1]; week 7,24.6^▴▴ g/d
same,Average dairy food intake,[1]; week 8,26.3^▴▴ g/d
same,Body weight,[2]; week 0,230.5 g
same,Body weight,[2]; week 1,235.1 g
same,Body weight,[2]; week 2,245.4^▴ g
same,Body weight,[2]; week 3,255.9^▴▴ g
same,Body weight,[2]; week 4,260.5^▴▴ g
same,Body weight,[2]; week 5,266.3^▴▴ g
same,Body weight,[2]; week 6,271.0^▴▴ g
same,Body weight,[2]; week 7,280.6^▴▴ g
same,Body weight,[2]; week 8,290.7^▴▴ g
same,Systolic pressure,[3]; 30 min,149.75 ± 8.09 mmHg
same,Systolic pressure,[3]; 60 min,140.95 ± 9.50 mmHg
same,Systolic pressure,[3]; 90 min,139.23 ± 6.04 mmHg
same,Systolic pressure,[3]; 120 min,134.41 ± 8.31 mmHg
same,Systolic pressure,[3]; before administration,161.24 ± 11.03 mmHg
same,Systolic pressure,"[4]; 1 d, 30 min after administration",145.17 ± 6.42 mmHg
same,Systolic pressure,"[4]; 7 d, 30 min after administration",142.05 ± 7.24 mmHg
same,Systolic pressure,"[4]; 13 d, 30 min after administration",140.36 ± 9.20 mmHg
same,Systolic pressure,"[4]; 19 d, 30 min after administration",138.39 ± 7.26 mmHg
same,Systolic pressure,"[4]; 25 d, 30 min after administration",145.02 ± 7.30 mmHg
same,Systolic pressure,"[4]; 35 d, 30 min after administration",139.08 ± 6.72 mmHg
same,Systolic pressure,"[4]; 49 d, 30 min after administration",135.47 ± 8.47 mmHg
same,Systolic pressure,"[4]; 56 d, 30 min after administration",130.39 ± 4.65 mmHg
same,Systolic pressure,[4]; before administration,161.24 ± 11.03 mmHg

# Source: patent US10875874B2, “Ginkgolide B derivative and preparation method and use thereof” (Chengdu Baiyu Ginkgolide Pharmaceuticals Co., Ltd., priority 2015, dated 2020)
